The record followed here is ChEMBL document CHEMBL1126282, “Synthesis and conformational properties of the lanthionine-bridged opioid peptide [D-AlaL2,AlaL5]enkephalin as determined by NMR and computer simulations” (J Med Chem, 1992).

The species named for test [1] is Cavia porcellus. In words: Potency to inhibit electrically induced contraction of guinea pig ileum(GPI) relative to [Leu5]-enkephalin. Format: functional.
For test [2], the species on record is Mus musculus. Briefly: Potency to inhibit electrically induced contraction of mouse vas deferens(MVD) relative to [Leu5]-enkephalin. It is filed as functional.
Test [3] is described as follows: Selectivity Ratio of IC50 of MVD to IC50 of GPI. It is filed as functional.
The next test has as its system Rattus norvegicus. Briefly: Effective dose was measured using in vivo rat hot plate test after intrathecal injection. Format: functional. To be noted: central.
The species named for test [4] is Cavia porcellus. In words: Concentration inhibiting electrically induced contraction of guinea pig ileum(GPI). Format: functional, organism-based.
The test system of test [5] is Cavia porcellus. In words: Concentration inhibiting electrically induced contraction of guinea pig ileum(GPI) at an ED50 of 0.15(ug/kg). Format: functional, organism-based.
The test system of test [6] is Mus musculus. Briefly: Concentration inhibiting electrically induced contraction of mouse vas deferens(MVD) at an ED50 of 0.15(ug/kg). Format: functional, organism-based.

On to `NC(=O)[C@@H]1CSSC[C@@H](NC(=O)[C@@H](N)Cc2ccc(O)cc2)C(=O)NCC(=O)N[C@@H](Cc2ccccc2)C(=O)N1` [listing 1 of 2 here], for which the Relative potency in the test listed under Cavia porcellus [1] is given as 132; in the test listed under Mus musculus [2], 17.
In the case of `NC(=O)[C@H]1CSSC[C@H](NC(=O)[C@@H](N)Cc2ccc(O)cc2)C(=O)NCC(=O)N[C@H](Cc2ccccc2)C(=O)N1`, the Ratio in test [3] came to 0.503.
For `CN1CC[C@]23c4c5ccc(O)c4O[C@H]2[C@@H](O)C=C[C@H]3[C@H]1C5` [MORPHINE], it took a dose of 5.6 µg/kg to reach the 50% effect level in the test on Rattus norvegicus (ED50).
Regarding `NC(=O)[C@@H]1CSSC[C@@H](NC(=O)[C@@H](N)Cc2ccc(O)cc2)C(=O)NCC(=O)N[C@@H](Cc2ccccc2)C(=O)N1` [listing 2 of 2 here], in the test listed under Cavia porcellus [4], the half-inhibitory concentration (IC50) worked out at 1.51 nM.
In the test on Rattus norvegicus, `CC(C)C[C@H](NC(=O)[C@H](Cc1ccccc1)NC(=O)CNC(=O)CNC(=O)[C@@H](N)Cc1ccc(O)cc1)C(=O)O` [ENKEPHALIN] had a median effective dose (ED50) above 100 µg/kg.
As to `NC(=O)[C@@H]1CSC[C@@H](NC(=O)[C@@H](N)Cc2ccc(O)cc2)C(=O)NCC(=O)N[C@@H](Cc2ccccc2)C(=O)N1`, the Relative potency is on record as 396 in the test listed under Cavia porcellus [1] and 21 in the test filed under Mus musculus [2]. Moreover, the Ratio in test [3] was determined as 0.882. Further, the 50% inhibitory concentration (IC50) is 0.62 nM in the test with Cavia porcellus [5] and 0.54 nM in the test with Mus musculus [6]. The compound also displayed an ED50 with Rattus norvegicus of 0.15 µg/kg.
